Each structure is given as a SMILES string.

In one assay the test system is PC-6. Put plainly: Cytotoxicity against human PC6 cells by MTT assay. It is filed as functional, cell-based.
Assay [1] is described as follows: Cytotoxicity against human U251SP cells by MTT assay. It counts as functional, cell-based.

`COc1c(O)cc2c(c1OC)C(=O)c1ccc(C)cc1C2=O` had an IC50 in the assay on PC-6 of 52.2 µM. For the compound `COc1cc(O)c(C(=O)/C=C/c2ccc(O)cc2)c(OC)c1OC`, in assay [1], the IC50 was determined as 92.7 µM.

Source of the values: ChEMBL document CHEMBL2203160, “PPARγ agonist from Chromolaena odorata” (J Nat Prod, 2012).
